In this assay the test system is L. monocytogenes EGD-e. The assay is described as follows: Agar diffusion test (ADT) of cell lysates, zone of growth inhibition, with PAS staining for glycosylation. The class given is cell-based, Listeria monocytogenes. The following applies: ADT against L. monocytogenes, cleavage buffer treated cell lysate, glycosylation by PAS staining. On the technique in general: In agar diffusion tests the substance spreads into inoculated agar from a disc or well.

This note sets out measurements from patent US12241058B2, “Recombinant microbial system for directed evolution of glycocins and method of preparation thereof” (COUNCIL OF SCIENTIFIC & INDUSTRIAL RESEARCH, priority 2018, dated 2025).

As to “SEQ ID NO: 43: variant of Enterocin 96: MASKRDCNLMKACCAGQAVTYAIQSLLNRLGGDSSDPAGCNDIVRKYCK (Variant of Enterocin 96)”, the “Zone of inhibition as well as glycosylation positive” value (“Zone of inhibition as well” below) was “positive”. For the same substance, the “Zone of inhibition as well” value (listed as H24Q) is “Yes”.

For “SEQ ID NO: 44: variant of Enterocin 96: MASKRDCNLMKARCAGQAVTYAIHSLLNRLGGDSSDPAGCNDIVRKYCK (Variant of Enterocin 96)”, the “Zone of inhibition as well” value is “positive”. For the same substance, for the setting “listed as C13R”, the “Zone of inhibition as well” value is listed as “Yes”.

For “SEQ ID NO: 47: variant of Enterocin 96: MASKRDCNLMKACCAGQAVTYAIHSLLNRLGGDSSVPAGCNDIVRKYCK (Variant of Enterocin 96)”, the “Zone of inhibition as well” value was “positive”. Moreover, the “Zone of inhibition as well” value (listed as D36V) is listed as “Yes”.

As for “SEQ ID NO: 57: variant of Enterocin 96: MASKRDCNLMKACCAGQAVTYAIHSLLNRLGGDSSDWRCK (Variant of Enterocin 96)”, the “Zone of inhibition as well” value is listed as “neither showed any bioactivity nor glycosylation”.

As for “SEQ ID NO: 51: variant of Enterocin 96: MASKHDCNLMKACCAGQAVTYAIHSLLNRLGGDSSDPAGCNDIVRKYCK (Variant of Enterocin 96)”, the “Zone of inhibition as well” value is given as “positive”. Also, where the note is “listed as R5H”, the “Zone of inhibition as well” value was “Yes”.

For the substance “SEQ ID NO: 58: variant of Enterocin 96: MASKRDCNLMKACCAGQAVTYAIHSLLNRLGGDSGDPAGCNDIVRKYCK (Variant of Enterocin 96)”, the “Zone of inhibition as well” value was “neither showed any bioactivity nor glycosylation”.

On to “SEQ ID NO: 55: variant of Enterocin 96: MASKRDCNLMKACCAGQAVTYAIHSLLNRLGGNSSDPAGCNDIVRKYCK (Variant of Enterocin 96)”, for which the “Zone of inhibition as well” value is recorded as “neither showed any bioactivity nor glycosylation”.

With “SEQ ID NO: 49: variant of Enterocin 96: MASKRDCNLMKACCAGHAVTYAIHSLLKRLGGDSSDPAGCNDIVRKYCK (Variant of Enterocin 96)”, the “Zone of inhibition as well” value is on record as “positive”. Also, the “Zone of inhibition as well” value (listed as Q17H-N28K) is reported as “Yes”.

On to “SEQ ID NO: 56: variant of Enterocin 96: MASKRDCNLMKACCAGQAVTYAIHSLLNRLGGDFSDPAGCNDIVRKYCK (Variant of Enterocin 96)”, for which the “Zone of inhibition as well” value is listed as “neither showed any bioactivity nor glycosylation”.

For the substance “SEQ ID NO: 54: variant of Enterocin 96: MASKRDCNLMKACCAGQAVTYAIHSLLNRLGGDPSDPAGCNDIVRKYCK (Variant of Enterocin 96)”, the “Zone of inhibition as well” value is listed as “neither showed any bioactivity nor glycosylation”.

In the case of “SEQ ID NO: 52: variant of Enterocin 96: MASKRDCNLMKACCAGQAVTYGIHSLLNRLGGDSSDPAGCNDIVRKYCK (Variant of Enterocin 96)”, the “Zone of inhibition as well” value was “positive”. Further, for the setting “listed as A22G”, the “Zone of inhibition as well” value is “Yes”.

For “SEQ ID NO: 53: variant of Enterocin 96: MASKRDCNLMKACCAGLAVTYAIHSLLNRLGGDSSDPAGCNDIVRKYCK (Variant of Enterocin 96)”, the “Zone of inhibition as well” value is on record as “positive”. Besides, the “Zone of inhibition as well” value (listed as Q17L) is given as “Yes”.

As for “SEQ ID NO: 59: variant of Enterocin 96: MASKRDCNLMKACCAGQAVTYAIHSLLNRLGGDSSEPAGCNDIVRKYCK (Variant of Enterocin 96)”, the “Zone of inhibition as well” value is listed as “neither showed any bioactivity nor glycosylation”.

Consider “SEQ ID NO: 48: variant of Enterocin 96: MASKRDCNLMKACCAGQAVTYAIHSLLYRLGGDSSDPAGCNDIVRKYCK (Variant of Enterocin 96)”, for which the “Zone of inhibition as well” value is recorded as “positive”. Besides, the “Zone of inhibition as well” value (listed as N28Y) is listed as “Yes”.

Take “SEQ ID NO: 46: variant of Enterocin 96: MASKRDCNLMKACCAEQAVTYAIHSLLNRLGGDSSDPAGCNDIVRKYCK (Variant of Enterocin 96)”: the “Zone of inhibition as well” value was “positive”.

For “SEQ ID NO: 50: variant of Enterocin 96: MASKRDCNLMKACCAGQAVTYAIHSLLNRLGGDSSDPAGSNDIVRKYCK (Variant of Enterocin 96)”, the “Zone of inhibition as well” value was “positive”. In addition, the “Zone of inhibition as well” value (listed as C40S) is given as “Yes”.
